Results reported in patent publication US12077503B2, “Substituted cyclic amides and their use as herbicides” (FMC CORPORATION, priority 2015, dated 2024).

Experiments:
Type in all cases: in vivo
[1] = tested on: ryegrass, Italian (Italian ryegrass, Lolium multiflorum); assay: Test A postemergence; details: Lolium multiflorum, post-emergence, 240 h, postemergence; for pest or weed control at 125 g/ha: 125 g ai/ha, visual injury vs untreated controls after approx. 10 d, 0 = no effect, 100 = complete control, read-out: Ryegrass, Italian plant response rating (0 to 100 scale); for pest or weed control at 500 g/ha: 500 g ai/ha, 0 to 100 scale, 0 is no effect, 100 is complete control, read-out: Ryegrass, Italian plant response rating
In short: (§1)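 Compounds were formulated in a non-phytotoxic solvent mixture with surfactant and applied as a preemergence directed soil spray after seeding, or sprayed postemergence over plants 2 to 10 cm tall at the one- to two-leaf stage. Evaluation after about 10 d compared treated with untreated controls, using a scale from 0 (no effect) to 100 (complete control).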

[2] = tested on: giant foxtail (Setaria faberii); assay: Test A postemergence; details: Setaria faberi, post-emergence, 240 h, postemergence; for pest or weed control at 125 g/ha: 125 g ai/ha, visual injury vs untreated controls after approx. 10 d, 0 = no effect, 100 = complete control, read-out: Foxtail, Giant plant response rating (0 to 100 scale); for pest or weed control at 500 g/ha: 500 g ai/ha, 0 to 100 scale, 0 is no effect, 100 is complete control, read-out: Foxtail, Giant plant response rating
In short: as §1

[3] = tested on: wheat (Triticum aestivum); assay: Test A postemergence; details: Triticum aestivum, post-emergence, 240 h, postemergence; for plant injury at 125 g/ha: 125 g ai/ha, visual injury vs untreated controls after approx. 10 d, 0 = no effect, 100 = complete control, read-out: Wheat plant response rating (0 to 100 scale); for plant injury at 500 g/ha: 500 g ai/ha, 0 to 100 scale, 0 is no effect, 100 is complete control, read-out: Wheat plant response rating
In short: as §1

[4] = tested on: Galium (catchweed bedstraw, Galium aparine); assay: Test A postemergence; details: Galium, post-emergence, 240 h, postemergence; for pest or weed control at 125 g/ha: 125 g ai/ha, visual injury vs untreated controls after approx. 10 d, 0 = no effect, 100 = complete control, read-out: Galium plant response rating (0 to 100 scale); for pest or weed control at 500 g/ha: 500 g ai/ha, 0 to 100 scale, 0 is no effect, 100 is complete control, read-out: Galium plant response rating
In short: as §1

corn (Zea mays) = assay: Test A postemergence; details: Zea mays, post-emergence, 240 h, postemergence; for plant injury at 125 g/ha: 125 g ai/ha, visual injury vs untreated controls after approx. 10 d, 0 = no effect, 100 = complete control, read-out: Corn plant response rating (0 to 100 scale); for plant injury at 500 g/ha: 500 g ai/ha, 0 to 100 scale, 0 is no effect, 100 is complete control, read-out: Corn plant response rating
In short: as §1

[5] = tested on: pigweed (Amaranthus retroflexus); assay: Test A postemergence; details: Amaranthus retroflexus, post-emergence, 240 h, postemergence; for pest or weed control at 125 g/ha: 125 g ai/ha, visual injury vs untreated controls after approx. 10 d, 0 = no effect, 100 = complete control, read-out: Pigweed plant response rating (0 to 100 scale); for pest or weed control at 500 g/ha: 500 g ai/ha, 0 to 100 scale, 0 is no effect, 100 is complete control, read-out: Pigweed plant response rating
In short: as §1

[6] = tested on: blackgrass (Alopecurus myosuroides); assay: Test A postemergence; details: Alopecurus myosuroides, post-emergence, 240 h, postemergence; for pest or weed control at 125 g/ha: 125 g ai/ha, visual injury vs untreated controls after approx. 10 d, 0 = no effect, 100 = complete control, read-out: Blackgrass plant response rating (0 to 100 scale); for pest or weed control at 500 g/ha: 500 g ai/ha, 0 to 100 scale, 0 is no effect, 100 is complete control, read-out: Blackgrass plant response rating
In short: as §1

[7] = tested on: ragweed (common ragweed, Ambrosia elatior); assay: Test A postemergence; details: Ambrosia artemisiifolia, post-emergence, 240 h, postemergence; for pest or weed control at 125 g/ha: 125 g ai/ha, visual injury vs untreated controls after approx. 10 d, 0 = no effect, 100 = complete control, read-out: Ragweed plant response rating (0 to 100 scale); for pest or weed control at 500 g/ha: 500 g ai/ha, 0 to 100 scale, 0 is no effect, 100 is complete control, read-out: Ragweed plant response rating
In short: as §1

[8] = tested on: barnyardgrass (Echinochloa crus-galli); assay: Test A postemergence; details: Echinochloa crus-galli, post-emergence, 240 h, postemergence; for pest or weed control at 125 g/ha: 125 g ai/ha, visual injury vs untreated controls after approx. 10 d, 0 = no effect, 100 = complete control, read-out: Barnyardgrass plant response rating (0 to 100 scale); for pest or weed control at 500 g/ha: 500 g ai/ha, 0 to 100 scale, 0 is no effect, 100 is complete control, read-out: Barnyardgrass plant response rating
In short: as §1

[9] = tested on: ryegrass, Italian (Italian ryegrass, Lolium multiflorum); assay: Test A preemergence; details: Lolium multiflorum, pre-emergence, 240 h, preemergence, 0 to 100 scale where 0 is no effect and 100 is complete control, read-out: Ryegrass, Italian plant response rating; for pest or weed control at 125 g/ha: 125 g ai/ha, visual injury rating, approximately 10 d; for pest or weed control at 500 g/ha: 500 g ai/ha
In short: as §1

[10] = tested on: giant foxtail (Setaria faberii); assay: Test A preemergence; details: Setaria faberi, pre-emergence, 240 h, preemergence, 0 to 100 scale where 0 is no effect and 100 is complete control, read-out: Foxtail, Giant plant response rating; for pest or weed control at 125 g/ha: 125 g ai/ha, visual injury rating, approximately 10 d; for pest or weed control at 500 g/ha: 500 g ai/ha
In short: as §1

[11] = tested on: pigweed (Amaranthus retroflexus); assay: Test A preemergence; details: Amaranthus retroflexus, pre-emergence, 240 h, preemergence, 0 to 100 scale where 0 is no effect and 100 is complete control, read-out: Pigweed plant response rating; for pest or weed control at 125 g/ha: 125 g ai/ha, visual injury rating, approximately 10 d; for pest or weed control at 500 g/ha: 500 g ai/ha
Kochia (Kochia scoparia) = assay: Test A preemergence; details: Bassia scoparia, pre-emergence, 240 h, preemergence, 0 to 100 scale where 0 is no effect and 100 is complete control, read-out: Kochia plant response rating; for pest or weed control at 125 g/ha: 125 g ai/ha, visual injury rating, approximately 10 d; for pest or weed control at 500 g/ha: 500 g ai/ha
In short: as §1

[12] = tested on: ragweed (common ragweed, Ambrosia elatior); assay: Test A preemergence; details: Ambrosia artemisiifolia, pre-emergence, 240 h, preemergence, 0 to 100 scale where 0 is no effect and 100 is complete control, read-out: Ragweed plant response rating; for pest or weed control at 125 g/ha: 125 g ai/ha, visual injury rating, approximately 10 d; for pest or weed control at 500 g/ha: 500 g ai/ha
In short: as §1

Row | Compound | pest or weed control at 125 g/ha [1] [%] | pest or weed control at 500 g/ha [1] [%] | pest or weed control at 125 g/ha [2] [%] | pest or weed control at 500 g/ha [2] [%] | plant injury at 125 g/ha [3] [%] | pest or weed control at 125 g/ha [4] [%] | pest or weed control at 500 g/ha [4] [%] | plant injury at 125 g/ha (corn (Zea mays)) [%] | plant injury at 500 g/ha (corn (Zea mays)) [%] | pest or weed control at 125 g/ha [5] [%] | pest or weed control at 500 g/ha [5] [%] | pest or weed control at 125 g/ha [6] [%] | pest or weed control at 500 g/ha [6] [%] | pest or weed control at 125 g/ha [7] [%] | pest or weed control at 500 g/ha [7] [%] | pest or weed control at 125 g/ha [8] [%] | pest or weed control at 500 g/ha [8] [%] | pest or weed control at 125 g/ha [9] [%] | pest or weed control at 500 g/ha [9] [%] | pest or weed control at 125 g/ha [10] [%] | further results
1 | Cc1ccc([C@H]2CCN(C)C(=O)[C@@H]2C(=O)Nc2cccc(F)c2F)cc1 [Compound 1220] | 20 | 30 | 80 | 80 | 20 | 30 | 40 | 30 | 70 | 20 | 20 | 30 | 40 | 20 | 30 | 70 | 80 | 30 | 50 | 90 | plant injury at 500 g/ha [3]: 40%; pest or weed control at 500 g/ha [10]: 90%; pest or weed control at 125 g/ha [11]: 20%; pest or weed control at 500 g/ha [11]: 40%; pest or weed control at 125 g/ha (Kochia (Kochia scoparia)): 40%; pest or weed control at 500 g/ha (Kochia (Kochia scoparia)): 50%; pest or weed control at 125 g/ha [12]: 30%; pest or weed control at 500 g/ha [12]: 40%
2 | CN1CC[C@H](c2ccc(C(F)(F)F)cc2)[C@@H](C(=O)Nc2cccc(F)c2F)C1=O [Compound 1225] | 30 | 30 | 90 | 90 | 30 | 50 | 70 | 30 | 90 | 30 | 40 | 30 | 40 | 40 | 50 | 90 | 90 | 20 | 40 | 90 | plant injury at 500 g/ha [3]: 70%; pest or weed control at 500 g/ha [10]: 90%; pest or weed control at 125 g/ha [11]: 30%; pest or weed control at 500 g/ha [11]: 50%; pest or weed control at 125 g/ha (Kochia (Kochia scoparia)): 60%; pest or weed control at 500 g/ha (Kochia (Kochia scoparia)): 70%; pest or weed control at 125 g/ha [12]: 50%; pest or weed control at 500 g/ha [12]: 60%
3 | CSc1ccccc1NC(=O)[C@H]1C(=O)N(C)C[C@@H]1c1cccc(C)c1 [Compound 1232] | 30 | 60 | 80 | 90 | 0 | 20 | 60 | 0 | 70 | 0 | 40 | 0 | 40 | 0 | 50 | 80 | 80 | 20 | 60 | 90 | pest or weed control at 500 g/ha [10]: 90%; pest or weed control at 125 g/ha [11]: 70%; pest or weed control at 500 g/ha [11]: 90%; pest or weed control at 125 g/ha (Kochia (Kochia scoparia)): 70%; pest or weed control at 500 g/ha (Kochia (Kochia scoparia)): 80%; pest or weed control at 125 g/ha [12]: 60%; pest or weed control at 500 g/ha [12]: 80%
